Laboratory results taken from patent US11857663B2, “Stable silk protein fragment compositions” (Evolved By Nature, Inc., priority 2013, dated 2024).

Experiment: HPLC chromatograms of samples comprising vitamin C (degradation products)
Assay type: physicochemical
Details: after 1 hour at ambient conditions without chemical stabilization
Procedure: FIGS. 36A and 36B show two HPLC chromatograms from samples comprising vitamin C. […] No degradation products were visible. FIG. 59 is a table summarizing the vitamin C concentration in silk protein fragment-films (2% silk films air dried at RT) of the present disclosure. In FIG. 59 processing conditions included 100° C. extraction for 20 min, RT rinse, LiBr in 60° C. oven for 4-6 hours. FIG. 60 is arable summarizing the stability of vitamin C in chemically stabilized solutions. FIGS. 89A-89B are tables summarizing vitamin C stability in SPF gels without chemical stabilizers as compared to chemically stabilized vitamin C in competitive anti-aging skincare products. […] Without wishing to be bound by theory, it appears there is a relationship between vitamin C concentration, silk concentration, and gelation. An increase in vitamin C at a given concentration of silk will result in a longer time to gelation or inhibit gelation. This may be due to the vitamin C molecule physically blocking interaction between silk protein fragments or cross-linking of silk protein.

degradation products of vitamin C: degradation products are visible
SMILES: O=C1O[C@H]([C@@H](O)CO)C(O)=C1O [vitamin C, L-ascorbic acid]
